Like-named read-outs stand apart in the source and are kept apart here.
Columns and labels:
C57B1/6J mice = assay: Vasopressin infusion during pregnancy, preeclampsia-like phenotypes; assay type: in vivo
Experimental: Animal Studies: Female C57B1/6J mice were obtained from Jackson Laboratories between 8-12 weeks of age. Osmotic minipumps infusing vasopressin (240 ng/hr) or saline vehicle were inserted into the subcutaneous space via incision between the scapulae. Following three days of recovery, females were mated with male C57B1/6J mice. Presence of a vaginal plug indicated gestational day 0.5. Blood pressure was tracked before mating and throughout gestation by tail-cuff plethysmography. On gestational day 18, females were sacrificed for necropsy. Pup weight was recorded. Dam kidney sections were generated and imaged by electron microscopy by the University of Iowa Department of Pathology. All studies were approved by the University of Iowa Animal Care and Use Committee (ACURF#1211239).

[1] = system: 2°-branch mesenteric artery; assay: tissue or blood; design: species or system mice; settings: mesenteric artery; for EC50: read-out: EC50, contractile response
Experimental: Mesenteric Artery Vascular Reactivity: Secondary branches of mesenteric artery were dissected and placed in chilled oxygenated (21% O2, 5% CO2, and 74% N2) Kreb's buffer. A segment (˜1 mm long) of artery was transferred to a vessel chamber (DMT), cannulated with glass micropipettes and secured with silk ligatures. The artery was slowly pressurized to 40 mmHg without flow. After 30 min equilibration, vessel viability was tested by constriction response to 100 mM KCl. Vascular responses to PE (10-9-10-5 mol/L), AVP (10-12-10-7 mol/L), and ET-1 (10-11-10-8 mol/L) were then assessed. The artery was then superfused with calcium-free Krebs buffer containing 10-5 mol/L sodium nitroprusside and 2 mmol/L EGTA to maximally dilate the vessel. Internal and external diameters were measured at 75 mm Hg. Wall thickness, media/lumen ratio and cross sectional area (CSA) were calculated as previously described by Neves, et al. (58).
Statistics: Data were analyzed by ANOVA with repeated measures as appropriate. Post-hoc analyses were performed using Bonferroni multiple-comparisons procedures. EC50 and maximum response calculations were performed by fitting individual dose-response data sets to a four-parameter logistic function (Hillslope method); y=min+(max−min)/(1+(x/EC50)̂Hill slope). All mRNA fold changes were calculated using the Livak method (51). All analytical comparisons were performed using SigmaStat/SigmaPlot (Systat). All data are presented as mean±sem.

[2] = in blood; cited from earlier work
abdominal aorta = settings: abdominal aorta; for EC50: read-out: EC50, contractile response
Experimental: Aortic Vascular Reactivity: Abdominal aortic rings were assessed for vascular reactivity as previously described (30). Briefly, mice were euthanized by overdose of pentobarbital (50 mg, i.p.), and the abdominal aorta was quickly removed and placed in Kreb's buffer containing (in mmol/L): 118.3 NaCl, 4.7 KCl, 1.2 MgSO4, 1.2 KH2PO4, 25 NaHCO3, 2.5 CaCl2 and 11 glucose. Vascular rings (4-5 mm in length) were suspended in oxygenated Kreb's buffer (95% O2/5% CO2) in organ baths at 37° C. and connected to a force transducer via steel hooks. Resting tension was adjusted to 0.5 grams over 45 minutes.
Statistics: Data were analyzed by ANOVA with repeated measures as appropriate. Post-hoc analyses were performed using Bonferroni multiple-comparisons procedures. EC50 and maximum response calculations were performed by fitting individual dose-response data sets to a four-parameter logistic function (Hillslope method); y=min+(max−min)/(1+(x/EC50)̂Hill slope). […] All analytical comparisons were performed using SigmaStat/SigmaPlot (Systat). All data are presented as mean±sem.

sRA mice [3] = assay: Blood pressure by tail-cuff during chronic subcutaneous infusion; assay type: in vivo; settings: 22 ng/h sc by osmotic minipump, 10 days
Experimental: Here we first examined blood pressure in sRA mice using a Visitech Systems BP-2000 tail-cuff blood pressure monitoring system, as previously described (79). Briefly, animals were acclimated to warmed restraint boxes daily for 1 wk. Once acclimated, 30 measurements of systolic blood pressure were averaged from each animal daily for 2 wk to assess baseline blood pressure. Conivaptan (Vaprisol, YM 087, 22 ng/h sc, Baxter Healthcare) or tolvaptan (OPC-41061, 22 ng/h sc, Sigma Aldrich) was delivered to distinct subsets of mice by osmotic minipump (model 1004, Alzet). After osmotic minipump implantation, pressures were recorded daily for 10 days to assess drug effects.

[4] = system: sRA and control littermate mice; assay: Blood chemistry following tolvaptan infusion (iSTAT CHEM8+); assay type: in vivo; settings: for Anion gap / BUN / Chloride / Glucose / Hematocrit / Ionized calcium / Potassium / Sodium / Total CO2 / Creatinine: tolvaptan 22 ng/h, 10 days sc; for Creatinine: lower detection limit 0.20 mg/dl
Experimental: Blood and urine analyses: Plasma was obtained by collecting whole blood by submandibular bleed into lithium heparin coated tubes, then centrifuged at 5,000×g for 5 minutes, and the supernatant transferred to a fresh tube and frozen at −80° C. until analysis. Urine was collected using Nalgene single-mouse metabolism cages as previously described (20). Copeptin was measured using an ELISA kit (USCN Life Sciences), according to the manufacturer's instructions. Blood chemistries and urine creatinine were determined using a handheld iSTAT clinical chemistry analyzer (Abbott), with CHEM8+ cartridges. Urine protein was determined using a bicinchoninic acid assay kit (Thermo Fisher/Pierce), according to the manufacturer's instructions.

sRA mice [5] = assay: Radiotelemetric blood pressure, heart rate and physical activity during chronic subcutaneous infusion; assay type: in vivo; settings: sRA mice, 22 ng/h sc infusion (conivaptan 18 days, one female; tolvaptan 10 days, n=4 female)
Experimental: Blood pressure (telemetry). Radiotelemetric blood pressures were recorded from the carotid artery essentially as previously reported (27). Briefly, a telemeter probe (DSI, model TA11PA-C10) was inserted into the common carotid artery under ketamine-xylazine anesthesia. After >2 days of recovery, blood pressure, heart rate, and spontaneous physical activity were recorded for 30 s every 5 min using the Dataquest program (DSI). After baseline recordings, mice were chronically delivered conivaptan and tolvaptan via osmotic minipump that was implanted through an interscapular incision into the subcutaneous space of the back under isoflurane anesthesia.

NC(=O)CC[C@@H]1NC(=O)[C@H](Cc2ccccc2)NC(=O)[C@H](Cc2ccc(O)cc2)NC(=O)[C@@H](N)CSSC[C@@H](C(=O)N2CCC[C@H]2C(=O)N[C@@H](CCCN=C(N)N)C(=O)NCC(N)=O)NC(=O)[C@H](CC(N)=O)NC1=O [Arginine vasopressin, arginine vasopressin]
renal pathology (electron microscopy) (C57B1/6J mice; dam kidney, gestational day 18, 240 ng/hr sc minipump): pathognomic glomerular endotheliosis | rate of pregnancy (fecundity) (C57B1/6J mice; female C57B1/6J mice, 240 ng/hr sc minipump): significantly reduced the rate of pregnancy | fetal growth (C57B1/6J mice; gestational day 18 fetuses, 240 ng/hr sc minipump): substantial fetal growth restriction | proteinuria (C57B1/6J mice; pregnant C57B1/6J mice, 240 ng/hr sc minipump): apparent proteinuria | blood pressure during pregnancy (C57B1/6J mice; pregnant C57B1/6J mice, 240 ng/hr sc minipump, tail-cuff): robust increase in blood pressure | Maximum Response, contraction ([1]; male control littermate mice): 52.5 ± 3.2% | EC50 ([1]; male control littermate mice): 0.57 ± 0.15 nM | EC50 ([1]; male sRA mice): 15.9 ± 13.5 nM | biological half-life [2]: 5-20 minutes | Maximum Response, contraction (abdominal aorta; male control littermate mice): 0.29 ± 0.03 g | Maximum Response, contraction (abdominal aorta; male sRA mice): 0.12 ± 0.01 g | EC50 (abdominal aorta; male control littermate mice): 2.19 ± 0.19 nM | EC50 (abdominal aorta; male sRA mice): 3.72 ± 0.73 nM

Cc1ccccc1C(=O)Nc1ccc(C(=O)N2CCC[C@@H](O)c3cc(Cl)ccc32)c(C)c1 [Tolvaptan, tolvaptan]
systolic blood pressure (tail-cuff), effect on hypertension (sRA mice [3]): nearly identical normalization of blood pressure | Anion gap ([4]; female control mice): 17.0 ± 1.5 mM | BUN ([4]; female control mice): 18.4 ± 0.9 mg/dL | Chloride ([4]; female control mice): 112.4 ± 0.5 mM | Glucose ([4]; female control mice): 190 ± 13 mg/dL | Hematocrit ([4]; female control mice): 45.4 ± 0.7 % RBC | Ionized calcium ([4]; female control mice): 1.19 ± 0.05 mM | Potassium ([4]; female control mice): 6.4 ± 0.1 mM | Sodium ([4]; female control mice): 146.2 ± 0.7 mM | Total CO2 ([4]; female control mice): 24.0 ± 1.1 mM | Creatinine ([4]; female control mice): 0.24 ± 0.02 mg/dL | Anion gap ([4]; female sRA mice): 18.5 ± 0.7 mM | BUN ([4]; female sRA mice): 24.5 ± 1.7 mg/dL | Chloride ([4]; female sRA mice): 105.2 ± 1.6 mM | Glucose ([4]; female sRA mice): 136 ± 15 mg/dL | Hematocrit ([4]; female sRA mice): 49.8 ± 1.1 % RBC | Ionized calcium ([4]; female sRA mice): 1.18 ± 0.03 mM | Potassium ([4]; female sRA mice): 5.3 ± 0.3 mM | Sodium ([4]; female sRA mice): 146.3 ± 0.7 mM | Total CO2 ([4]; female sRA mice): 28.8 ± 1.7 mM | Creatinine ([4]; female sRA mice): 0.33 ± 0.04 mg/dL | Anion gap ([4]; male control mice): 16.3 ± 0.5 mM | BUN ([4]; male control mice): 21.5 ± 0.9 mg/dL | Chloride ([4]; male control mice): 115.5 ± 0.3 mM | Glucose ([4]; male control mice): 182 ± 7 mg/dL | Hematocrit ([4]; male control mice): 43.8 ± 1.1 % RBC | Ionized calcium ([4]; male control mice): 1.18 ± 0.04 mM | Potassium ([4]; male control mice): 6.6 ± 0.5 mM | Sodium ([4]; male control mice): 148.3 ± 1.3 mM | Total CO2 ([4]; male control mice): 24.0 ± 0.8 mM | Creatinine ([4]; male control mice): 0.25 ± 0.03 mg/dL | Anion gap ([4]; male sRA mice): 21.0 ± 2.4 mM | BUN ([4]; male sRA mice): 27.3 ± 2.1 mg/dL | Chloride ([4]; male sRA mice): 107.0 ± 2.7 mM | Glucose ([4]; male sRA mice): 181 ± 28 mg/dL | Hematocrit ([4]; male sRA mice): 52.0 ± 1.1 % RBC | Ionized calcium ([4]; male sRA mice): 1.18 ± 0.03 mM | Potassium ([4]; male sRA mice): 5.4 ± 0.1 mM | Sodium ([4]; male sRA mice): 147.5 ± 1.9 mM | Total CO2 ([4]; male sRA mice): 26.0 ± 3.4 mM | Creatinine ([4]; male sRA mice): 0.30 ± 0.04 mg/dL | effect on hyponatremia and hypocalcemia ([4]; sRA mice, chronic tolvaptan 22 ng/h sc, 10 days): corrected both of these imbalances | radiotelemetric blood pressure (sRA mice [5]): blood pressure reduction was confirmed
